Drawing on patent US20090181950A1, “Histamine Receptor Antagonists Comprising an Azepin Core” (GLAXO GROUP LIMITED, priority 2006, published 2009), this text covers CNS penetration and Kb for five molecules.

Counter-ions that a name gives are not always drawn. Bounds are passed on as bounds.

One may read the Kb as the affinity of an antagonist, worked out from how it opposes an agonist. A higher Kb goes with a less potent antagonist.

The nature of data set [1]: CNS penetration by bolus administration. Type of data set: in vivo, male CD Sprague Dawley rats. The conditions noted are these: 1 mg/kg intravenously, blood and brain at 5 min post-dose. How it is done: Compounds are dosed intravenously at a nominal dose level of 1 mg/kg to male CD Sprague Dawley rats. Compounds are formulated in 5% DMSO/45% PEG200/50% water. Blood samples are taken under terminal anaesthesia with isoflurane at 5 min post-dose and the brains are also removed for assessment of brain penetration. Blood samples are taken directly into heparinised tubes. Blood samples are prepared for analysis using protein precipitation and brain samples are prepared using extraction of drug from brain by homogenisation and subsequent protein precipitation. The concentration of parent drug in blood and brain extracts is determined by quantitative LC-MS/MS analysis using compound-specific mass transitions.

In data set [2] the target is T1, human H1 receptor (Homo sapiens, UniProt P35367).
T1 construct: expressed in transfected cells
Put plainly: Histamine H1 functional antagonist assay (FLIPR): antagonist pA2. Type of data set: cell-based. The procedure: The human H1 receptor is cloned using known procedures described in the literature [Biochem. Biophys. Res. Commun., 201(2):894 (1994)]. Chinese hamster ovary (CHO) cells stably expressing the human H1 receptor are generated according to known procedures described in the literature [Br. J. Pharmacol., 117(6):1071 (1996)].
The histamine H1 receptor expressing CHO cells are seeded into non-coated black-walled clear bottom 96-well tissue culture plates as described above.
Following overnight culture, growth medium is removed from each well, washed with 200 μl phosphate buffered saline (PBS) and is replaced with 50 μl loading dye (250 μM Brilliant Black, 1 μM Fluo-4 diluted in Tyrodes buffer+probenecid (145 mM NaCl, 2.5 mM KCl, 10 mM HEPES, 10 mM D-glucose, 1.2 mM MgCl2, 1.5 mM CaCl2, 2.5 mM probenecid, pH adjusted to 7.40 with NaOH 1.0 M)). Cells are incubated for 45 min at 37° C. The loading buffer is removed and the cells are washed as above, and 90 μl of Tyrodes buffer+probenecid is added to each well. 10 μl of test compound, diluted to the required concentration in Tyrodes buffer+probenecid (or 10 μl Tyrodes buffer+probenecid as a control) is added to each well and the plate is incubated for 30 min at 37° C., 5% CO2.
The plates are then placed into a FLIPR™ (Molecular Devices, UK) to monitor cell fluorescence (λex=488 nm, λEM=540 nm) in the manner described in Sullivan et al., (In: Lambert DG (ed.), Calcium Signaling Protocols, New Jersey: Humana Press, 1999, 125-136) before and after the addition of 50 μl histamine over a concentration range of 1 mM-0.1 nM. The resultant concentration response curves are analysed by non-linear regression using a standard four parameter logistic equation to determine the histamine EC50, the concentration of histamine required to produce a response of 50% of the maximum response to histamine. The antagonist pA2 is calculated using the following standard equation: pA2=log(DR−1)−log[B] where DR=dose ratio, defined as EC50antagonist-treated/EC50control and [B]=concentration of antagonist.

T1 sequence (P35367 whole entry): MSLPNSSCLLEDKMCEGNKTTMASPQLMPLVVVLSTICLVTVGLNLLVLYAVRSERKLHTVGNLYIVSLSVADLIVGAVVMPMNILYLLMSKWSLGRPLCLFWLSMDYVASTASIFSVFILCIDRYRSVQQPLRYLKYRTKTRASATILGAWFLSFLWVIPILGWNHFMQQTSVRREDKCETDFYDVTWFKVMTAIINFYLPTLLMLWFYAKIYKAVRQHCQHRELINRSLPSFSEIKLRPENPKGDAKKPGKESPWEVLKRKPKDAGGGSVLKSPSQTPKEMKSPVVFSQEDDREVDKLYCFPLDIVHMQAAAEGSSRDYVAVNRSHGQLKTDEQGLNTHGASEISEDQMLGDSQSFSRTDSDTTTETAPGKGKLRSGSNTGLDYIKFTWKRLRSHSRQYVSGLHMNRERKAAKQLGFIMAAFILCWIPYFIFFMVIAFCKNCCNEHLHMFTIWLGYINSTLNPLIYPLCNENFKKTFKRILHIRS

Turning to `O=C(O)CCc1ccc2cc(Cc3ccccc3)cc(N3CCN(CCc4ccc(OCCCN5CCCCCC5)cc4)CC3)c2n1` [Example 1, 3-[8-{4-[2-(4-{[3-(Hexahydro-1H-azepin-1-yl)propyl]oxy}phenyl)ethyl]-1-piperazinyl}-6-(phenylmethyl)-2-quinolinyl]propanoic Acid, Formate Salt], in data set [1], the CNS penetration entry is “low CNS penetration”. Further, the antagonist dissociation constant (Kb) in data set [2] was under 10 nM. The matching figures for `CCc1cc(N2CCN(CCc3ccc(OCCCN4CCCCCC4)cc3)CC2)c2nc(CCC(=O)O)ccc2c1` [Example 2, 3-(6-Ethyl-8-{4-[2-(4-{[3-(hexahydro-1H-azepin-1-yl)propyl]oxy}phenyl)ethyl]-1-piperazinyl}-2-quinolinyl)propanoic Acid, Formate Salt]: “low CNS penetration” and under 10 nM. For `O=C(O)CCc1ccc2cccc(N3CCN(CCc4ccc(OCCCN5CCCCCC5)cc4)CC3)c2n1` [Example 3, 3-(8-{4-[2-(4-{[3-(Hexahydro-1H-azepin-1-yl)propyl]oxy}phenyl)ethyl]-1-piperazinyl}-2-quinolinyl)propanoic Acid, Formic Acid (1:2)], in that order: “low CNS penetration” and under 10 nM.

`O=C(O)CCc1cnc2c(N3CCN(CCc4ccc(OCCCN5CCCCCC5)cc4)CC3)cccc2c1` [Example 5, 3-(8-{4-[2-(4-{[3-(hexahydro-1H-azepin-1-yl)propyl]oxy}phenyl)ethyl]-1-piperazinyl}-3-quinolinyl)propanoic Acid, Formic Acid Salt] registered a Kb in data set [2] of under 100 nM.

`CCCCc1cc(N2CCN(CCc3ccc(OCCCN4CCCCCC4)cc3)CC2)c2nc(CCC(=O)O)ccc2c1` [Example 6, 3-(6-Butyl-8-{4-[2-(4-{[3-(hexahydro-1H-azepin-1-yl)propyl]oxy}phenyl)ethyl]-1-piperazinyl}-2-quinolinyl)propanoic Acid, Formate Salt]: the Kb in data set [2] was under 10 nM.
